Experimental data as given in PMC5606850, “Acidic C-terminal domains autoregulate the RNA chaperone Hfq” (eLife, 2017).

Experiments:
Hfq65 = Hfq65 (Escherichia coli, UniProt P0A6X3); conditions: dsRNA product (D16-FAM·R16) versus ssRNA substrate (D16-FAM)
Description: Annealing kinetics of molecular beacon (50 nM) to either Target or Target-A18 RNA (100 nM) by 0–200 nM Hfq hexamer, in 1X TNK (10 mM Tris·HCl pH 7.5, 50 mM NaCl, 50 mM KCl) buffer at 30°C was measured by stopped-flow fluorescence spectroscopy as described previously ([Soper et al., 2011]; [Panja and Woodson, 2012b]). Annealing progress curves were fit to single or double-exponential rate equations.

ChiX sRNA and chiP mRNA = experiment: ChiX sRNA-chiP mRNA annealing, EMSA; type: biochemical, E. coli; conditions: 10 °C; for time to form ternary complex with ChiX and chiP: 5 nM ChiX, 30 nM chiP; for stability of ChiX·Hfq·chiP ternary complex: 33.3 nM Hfq hexamer, TNK buffer
Description: Figure 4. Shortening the CTD increases auto-inhibition by acidic residues. (A) Observed annealing rate constants for 100 nM target RNA and 50 nM molecular beacon with 0–200 nM Hfq hexamer at 30°C, measured by stopped-flow fluorescence. Black, Hfq102; red, Hfq-sCTD; cyan, Hfq65. (B) Fluorescence anisotropy assay for RNA binding and release. In stopped-flow FRET experiments, the dsRNA is released after pairing with its complementary strand ([Panja et al., 2013]; [Santiago-Frangos et al., 2016]). […] Remaining RNA was displaced from Hfq by excess ssDNA (400 nM DNA2). The averages and standard deviations for three trials are plotted for each Hfq variant. […] (D) Annealing of 5 nM ^32P-ChiX sRNA with 30 nM chiP mRNA without Hfq, or with Hfq65, Hfq102 or Hfq-sCTD, as indicated above each lane. Samples were loaded on a native polyacrylamide gel 60 min or 20 s after the components were mixed. Full gel images are in Figure 4—figure supplement 2. (E) Fractions of free ChiX (black), ChiX·chiP dsRNA (light grey), ChiX·Hfq·chiP ternary complex (hatched) and ChiX·Hfq binary complex (dark grey) after 4 min of annealing, as analyzed by EMSA (Figure 4—figure supplement 2). Figure 4—figure supplement 1. Effect of CTD length on RNA oligomer annealing kinetics. Annealing of 100 nM Target RNA to 50 nM beacon RNA by Hfq variants was measured by stopped flow fluorescence at 30°C in 1 × TNK buffer. (A) Target RNA annealed by Hfq65 (no CTD), Hfq102 (complete CTD) or Hfq-sCTD (shortened linker CTD). (B) Target-U6 (proximal) annealed by Hfq65, Hfq102 or Hfq-sCTD. (C) Target-A18 annealed Hfq65, Hfq102 or Hfq-sCTD. The change in fluorescence emission intensity was normalized to the maximum fluorescence within an experiment. The average of five measurements is shown per progress curve. Annealing data were also collected for 0–200 nM Hfq hexamer. All progress curves were fitted to single- or double-exponential rate equations to obtain kobs, as previously described ([Santiago-Frangos et al., 2016]). [drawing 7] Figure 4—figure supplement 2. Effect of CTD length on sRNA·mRNA annealing. EMSAs of the annealing of 5 nM ^32P-ChiX to 30 nM chiP ([Rasmussen et al., 2009]) at 10°C in 1 × TNK buffer. Reactions were done (A) without Hfq, or with 33.3 nM hexamer (B) Hfq102, (C) Hfq65 or (D) Hfq-sCTD, Control reactions with ChiX only, ChiX and chiP mRNA, ChiX and Hfq or three components were loaded at the beginning (left) and end (right) of each time course, as indicated above the lanes. In the absence of Hfq, only 20% of ChiX·chiP annealed after 30 min. In the presence of all Hfq variants, at least 50% ChiX was in a ternary complex containing ChiX·Hfq·chiP within 1 min, and annealing reached a plateau within 2 min.
To determine whether the above results on RNA oligomers apply to natural RNA substrates for Hfq, we examined the annealing of the Class II sRNA ChiX to the mRNA chiP via electrophoretic mobility shift assays (EMSAs). Because the mRNA targets of class II sRNAs interact with the rim of Hfq ([Schu et al., 2015]; [Małecka et al., 2015]), we reasoned that this sRNA-mRNA pair would be sensitive to displacement by the CTD. Low nanomolar amounts of ChiX and chiP anneal very slowly at 10°C, in the absence of Hfq (Figure 4—figure supplement 2). Whereas, Hfq102, Hfq65 and Hfq-sCTD all form a ternary complex with ChiX and chiP within 20 s (Figure 4D), reaching equilibrium in a few minutes (Figure 4—figure supplement 2). […] Less ternary complex was formed by Hfq102, and the least by Hfq-sCTD.

Target and Target-U6 RNA = experiment: RNA annealing kinetics (molecular beacon with Target and Target-U6), stopped-flow fluorescence; type: biochemical; conditions: 16 nt Target and Target-U6 RNA; 30 °C
Description: Figure 4. Shortening the CTD increases auto-inhibition by acidic residues. (A) Observed annealing rate constants for 100 nM target RNA and 50 nM molecular beacon with 0–200 nM Hfq hexamer at 30°C, measured by stopped-flow fluorescence. Black, Hfq102; red, Hfq-sCTD; cyan, Hfq65. (B) Fluorescence anisotropy assay for RNA binding and release. In stopped-flow FRET experiments, the dsRNA is released after pairing with its complementary strand ([Panja et al., 2013]; [Santiago-Frangos et al., 2016]). […] Remaining RNA was displaced from Hfq by excess ssDNA (400 nM DNA2). The averages and standard deviations for three trials are plotted for each Hfq variant. […] (D) Annealing of 5 nM ^32P-ChiX sRNA with 30 nM chiP mRNA without Hfq, or with Hfq65, Hfq102 or Hfq-sCTD, as indicated above each lane. Samples were loaded on a native polyacrylamide gel 60 min or 20 s after the components were mixed. […] (E) Fractions of free ChiX (black), ChiX·chiP dsRNA (light grey), ChiX·Hfq·chiP ternary complex (hatched) and ChiX·Hfq binary complex (dark grey) after 4 min of annealing, as analyzed by EMSA (Figure 4—figure supplement 2). […] Annealing of 100 nM Target RNA to 50 nM beacon RNA by Hfq variants was measured by stopped flow fluorescence at 30°C in 1 × TNK buffer. […] The change in fluorescence emission intensity was normalized to the maximum fluorescence within an experiment. […]

Hfq102 = experiment: RNA binding to Hfq102, fluorescence anisotropy; design: species or system E. coli; conditions: dsRNA product (D16-FAM·R16) versus ssRNA substrate (D16-FAM)

Hfq65, sequence (P0A6X3 1-65): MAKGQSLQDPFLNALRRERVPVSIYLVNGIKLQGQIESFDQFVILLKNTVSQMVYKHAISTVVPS

Substance	Krel = Kd(P)/Kd(S), Hfq65 (Hfq65)	time to form ternary complex with ChiX and chiP (ChiX sRNA and chiP mRNA)	stability of ChiX·Hfq·chiP ternary complex (ChiX sRNA and chiP mRNA)	ChiX-Hfq binary complex remaining (ChiX sRNA and chiP mRNA; after 20 s)	annealing rate of Hfq65 relative to Hfq102 (Target and Target-U6 RNA)	Krel = Kd(P)/Kd(S), Hfq102 (Hfq102)
Hfq65: truncated E. coli Hfq variant lacking the CTD	2.3	≤ 20 s	most stable	almost no ChiX-Hfq65 binary complex remaining after 20 s	about five times faster than full-length Hfq102	–
Hfq102: full-length E. coli Hfq	–	≤ 20 s	medium	–	–	7.5
